From patent publication US8946203B2, “Benzodioxane inhibitors of leukotriene production” (Boehringer Ingelheim International GmbH, priority 2012, dated 2015)

What was measured:
human LTA4 hydrolase = target: T1, human LTA4 hydrolase (Homo sapiens, UniProt P09960); assay: LTA4H Enzyme assay (cleavage of Arg-AMC, fluorescence); type: biochemical; settings: LTA4H Enzyme 1 nM, Arg-AMC substrate 50 μM, room temperature 1 h, fluorescence; read-out: IC50 values of LTA4H Enzyme assay
T1 sequence (P09960 1-611): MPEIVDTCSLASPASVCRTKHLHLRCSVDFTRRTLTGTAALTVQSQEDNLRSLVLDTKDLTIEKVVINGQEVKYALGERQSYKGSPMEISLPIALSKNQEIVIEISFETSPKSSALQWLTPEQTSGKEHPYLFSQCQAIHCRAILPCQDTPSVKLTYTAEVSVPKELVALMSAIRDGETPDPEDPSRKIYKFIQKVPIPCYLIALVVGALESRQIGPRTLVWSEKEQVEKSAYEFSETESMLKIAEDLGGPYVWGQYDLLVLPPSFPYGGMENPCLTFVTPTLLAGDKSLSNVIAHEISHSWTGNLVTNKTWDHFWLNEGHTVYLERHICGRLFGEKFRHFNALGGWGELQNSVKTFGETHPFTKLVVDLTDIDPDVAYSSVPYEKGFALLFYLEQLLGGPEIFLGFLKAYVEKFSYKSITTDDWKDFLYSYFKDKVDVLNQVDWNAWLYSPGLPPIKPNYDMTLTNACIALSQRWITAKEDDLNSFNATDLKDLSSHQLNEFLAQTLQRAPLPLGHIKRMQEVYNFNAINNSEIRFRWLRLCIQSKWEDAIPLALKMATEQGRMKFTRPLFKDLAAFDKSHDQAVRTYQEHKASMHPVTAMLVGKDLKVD
Procedure, shortened: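 Aminomethylcoumarin release measured fluorimetrically (380/460 nm) after 1 h at room temperature. Reaction: 1 nM final enzyme, 50 μM final Arg-AMC and compound in Tris-HCl pH 7.5 with 100 mM KCl and 0.5% BSA.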

[1] = tested on: synthesis of LTB4 in human whole blood; assay: human whole blood (HWB) assay, LTB4 production inhibition after calcimycin stimulation; type: cell-based; settings: heparinized human whole blood, calcimycin 20 μM, plasma LTB4 by HTRF
Procedure, shortened: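 Plasma LTB4, quantified by HTRF immunoassay, is the read-out after calcimycin challenge (20 μM final, 30 min, 37 °C) of heparinized whole blood that had been pretreated with compound for 15 min at 37 °C; values given as IC50.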

IC50 (human LTA4 hydrolase) [µM]	IC50 [1] [µM]	SMILES
0.00012	0.083	O=C(O)C1CCN(Cc2ccc([C@H]3COc4ccccc4O3)cc2)CC1 [Example 200, (S)-1-[4-(2,3-dihydro-benzo[1,4]dioxin-2-yl)-benzyl]-piperidine-4-carboxylic acid]
0.00013	0.028	COC1CCCN(Cc2ccc([C@H]3COc4cccnc4O3)cc2)C1 (stereo partly drawn) [Example 158, (3S)-3-{4-[(3-methoxypiperidin-1-yl)methyl]phenyl}-2,3-dihydro[1,4]dioxino[2,3-b]pyridine]
0.00075	0.145	O=C(NCCO)C1CCN(Cc2ccc(C3COc4ccccc4O3)cc2)CC1 (racemic) [Example 52, 1-[4-(2,3-dihydro-1,4-benzodioxin-2-yl)benzyl]-N-(2-hydroxyethyl)piperidine-4-carboxamide]
0.00045	0.256	CC(=O)N1CCCC12CCN(Cc1ccc([C@H]3COc4ccccc4O3)cc1)C2 (stereo partly drawn) [Example 118, 1-(7-{4-[(2S)-2,3-dihydro-1,4-benzodioxin-2-yl]benzyl}-1,7-diazaspiro[4.4]non-1-yl)ethanone]
0.00081	0.095	CCCCN(Cc1ccc(C(=O)O)cc1)Cc1ccc([C@H]2COc3ccccc3O2)cc1 [Example 237, 4-[(butyl{4-[(2S)-2,3-dihydro-1,4-benzodioxin-2-yl]benzyl}amino)methyl]benzoic acid]
0.0006	0.25	O=C(O)C1CCN(Cc2ccc([C@H]3COc4ccccc4O3)cc2)C1 (stereo partly drawn) [Example 61, 1-{4-[(2S)-2,3-dihydro-1,4-benzodioxin-2-yl]benzyl}pyrrolidine-3-carboxylic acid]
0.0025	0.26	CN[C@H](C)C(=O)NC1CCN(Cc2ccc([C@H]3COc4cccnc4O3)cc2)CC1 [Example 261, (R)-N-{1-[(S)-4-(2,3-Dihydro-[1,4]dioxino[2,3-b]pyridin-3-yl)-benzyl]-piperidin-4-yl}-2-methylamino-propionamide]
0.00017	0.076	CCN(Cc1ccc([C@H]2COc3ccccc3O2)cc1)C1CCCC1 [Example 109, N-{4-[(2S)-2,3-dihydro-1,4-benzodioxin-2-yl]benzyl}-N-ethylcyclopentanamine]

SMILES	IC50 (human LTA4 hydrolase) [µM]	IC50 [1] [µM]
CNC(=O)C1CCN(Cc2ccc(C3COc4ccccc4O3)cc2)CC1 (racemic) [Example 25, 1-[4-(2,3-Dihydro-benzo[1,4]dioxin-2-yl)-benzyl]-piperidine-4-carboxylic acid methylamide]	0.00076	0.294
O=C(O)[C@H]1[C@@H]2CN(Cc3ccc([C@H]4COc5ccccc5O4)cc3)C[C@@H]21 [Example 267, [(1α,5α,6α)-3-[(S)-4-(2,3-Dihydro-benzo[1,4]dioxin-2-yl)-benzyl]-3-aza-bicyclo[3.1.0]hexane]-6-carboxylic acid]	0.0003	0.073
CNC(=O)c1nnc2n1CCN(Cc1ccc([C@H]3COc4cccnc4O3)cc1)CC2 [Example 246, 6-[(S)-4-(2,3-Dihydro-[1,4]dioxino[2,3-b]pyridin-3-yl)-benzyl]-5,6,7,8-tetrahydro-4H-1,2,3a,6-tetraaza-azulene-3-carboxylic acid methylamide]	0.00029	0.091
N#Cc1cnc2n1CCN(Cc1ccc([C@H]3COc4cccnc4O3)cc1)C2 [Example 249, 7-[(S)-4-(2,3-Dihydro-[1,4]dioxino[2,3-b]pyridin-3-yl)-benzyl]-5,6,7,8-tetrahydro-imidazo[1,2-a]pyrazine-3-carbonitrile]	0.00025	0.058
O=C(CO)N1C[C@@H]2CC[C@H]1CN2Cc1ccc([C@H]2COc3cccnc3O2)cc1 [Example 281, 1-{(1S,4S)-5-[(S)-4-(2,3-Dihydro-[1,4]dioxino[2,3-b]pyridin-3-yl)-benzyl]-2,5-diaza-bicyclo[2.2.2]oct-2-yl}-2-hydroxy-ethanone]	0.00017	0.037
O=C(O)C1CCCN(Cc2ccc([C@H]3COc4ccccc4O3)cc2)CC1 (stereo partly drawn) [Example 266, 1-[(S)-4-(2,3-Dihydro-benzo[1,4]dioxin-2-yl)-benzyl]-azepane-4-carboxylic acid]	0.00022	0.098
